Measurements taken from article PMC3331929 (Antiviral Research, 2012).
Where two headings read alike, the source gives them in different places.

Columns and labels:
Assay type in all cases: biochemical
WNV NS2B/NS3pro [1] = molecular target: T1, WNV NS2B/NS3pro (West Nile virus, UniProt Q9Q6P4); settings: read-out: IC50 (μM) b; tetra-peptide substrate Bz-Nle-KRR-AMC
WNV NS2B/NS3pro [2] = molecular target: T1, WNV NS2B/NS3pro; settings: read-out: IC50 (μM) a; tri-peptide substrate Boc-GKR-AMC, inhibitor 0–40 μM
WNV NS2B/NS3pro [3] = molecular target: T1, WNV NS2B/NS3pro; experiment: In vitro protease assay, percent inhibition at a fixed inhibitor concentration; settings: aprotinin as positive control, final concentration 2–10 μM

T1 sequence (Q9Q6P4 1506-1683): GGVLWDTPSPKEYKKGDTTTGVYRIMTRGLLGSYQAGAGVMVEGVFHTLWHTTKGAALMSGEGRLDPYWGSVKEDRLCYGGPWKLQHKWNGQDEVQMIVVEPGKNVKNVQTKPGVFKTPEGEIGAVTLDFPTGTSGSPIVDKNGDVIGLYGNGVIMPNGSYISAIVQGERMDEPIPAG
T1 sequence (Q9Q6P4 1428-1467): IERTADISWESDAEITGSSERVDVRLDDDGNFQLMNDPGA

## Oc1c(C(Nc2nccs2)c2ccccc2)ccc2cccnc12 (stereo not drawn) [compound 23]
WNV NS2B/NS3pro [1]
  IC50: 12.9 ± 0.54 µM
WNV NS2B/NS3pro [2]
  IC50: 9.85 ± 0.34 µM

## aprotinin
WNV NS2B/NS3pro [3]
  inhibition of WNV NS2B-NS3pro, positive control: 100%
